# Reference: US8410068B2, “Compounds for the treatment or alleviation of edema, and methods for their use” (Index Pharmaceuticals AB, priority 2007, dated 2013)
# How the values were obtained:
# [1] = system: OVA induced airway inflammation; assay: Ovalbumin (OVA) induced allergic airway inflammation, BAL fluid cell counts; format: in vivo, Balb/c mice; conditions: prophylactic protocol, 50 μg/animal intranasal on day 16 and 21; for cell migration into BAL fluid: second experiment
# Procedure: Mice were sensitized intraperitoneally with 200 μL OVA/aluminium hydroxide gel (1:3) on day 0 and 12 (see FIG. 6). OVA (chicken egg albumin grade V, Sigma, St. Louis, Mo.) was dissolved in saline and mixed with aluminium hydroxide gel to a concentration of 50 μg/mL by rotation at 4° C. for 3 h. On days 23, 26, 30 and 33 (see FIG. 6), mice were challenged in the lungs by inhalation of aerosolized OVA for 30 minutes using a Batelle exposure chamber. Aerosols were generated by a compressed-air nebulizer (Collison 6-jet) at airflow 7.4 L/min using a nebulizer concentration of 10 mg/mL OVA dissolved in PBS (Sigma, St Louis, Mo., USA). The control group with non-sensitized animals received no other treatment than aerosolized OVA at days 23, 26, 30 and 33.
# In this OVA model (FIG. 6), a total of 4 oligonucleotides were tested, IDX9025, IDX9038, IDX9053 (Table 1, SEQ ID NO 2-4) and IDX0150 (Table 3, SEQ ID NO 11). The oligonucleotides were synthesized by biomers.net GmbH, Ulm, Germany and stored frozen at −20° C. The oligonucleotides were diluted with PBS to the working concentration (1,247 μg/μL) and kept at −20° C. until the first day of instillation, thereafter they were placed at 4° C.
# In a first experiment, both prophylactic and therapeutic protocols were tested (see FIG. 6). The drug treatment consisted of intranasal instillations of IDX0150 (1,247 μg/μL, provided by InDex Pharmaceuticals AB, Stockholm, Sweden) on days 16 and 21 (prophylactic protocol), on days 30 and 33 (therapeutic protocol A) or on days 30 and 34 (therapeutic protocol B). The instillations in the therapeutic protocols (A & B) on days 30 and 33 were given 4 h after aerosol challenge. The second instillation in protocol B on day 34 was given 24 h after the last aerosol challenge. The drug was administered in 40 μL PBS giving a dose of ˜50 μg/mice (49.88 μg/mice). The two sensitized sham-treatment groups were instilled with PBS, the same total volume as for the treatment groups, according to either the prophylactic protocol (days 16 and 21) or to the therapeutic protocol A (days 30 and 33).
# In a second experiment, since administration of IDX0150 in the first experiment using prophylactic protocol (FIG. 6) gave a significant reduction of airway inflammation (FIG. 7), three other substances were tested with the same protocol. The drug treatment consisted of intranasal instillations of IDX9025, IDX9038 and IDX9053 (Table 1) (1,247 μg/μL, provided by InDex Pharmaceuticals AB) on days 16 and 21 (see FIG. 6, prophylactic protocol). All substances were administered in 40 μL PBS giving a dose of ˜50 μg/mice (49.88 μg/mice). The two sensitized sham-treatment groups were instilled with PBS, the same total volume as for the treatment groups, according to the prophylactic protocol (days 16 and 21).
# Mice were killed by cervical dislocation 42 h after the last OVA aerosol challenge. The trachea was cannulated with polyethylene tubing (Becton Dickinson, Sparks, Md., USA) and bronchoalveolar lavage (BAL) was performed using 4×1 mL aliquots of ice-cold Hank's balanced salt solution (HBSS) (Sigma, St Louis, Mo., USA). The BAL fluid was centrifuged (400 g, 10 min, 4° C.) and the BAL fluid cells were resuspended in 0.4 mL PBS. The total number of leukocytes counted using tryphan blue exclusion in a Barker chamber. Duplicate Cytospin (Cytospin 3, Shandon, Runcorn, UK) preparations of BAL fluid cells were stained with May Grünewald Giemsa for differential counts, using standard morphological criteria.
# Statistical comparisons were performed using One-way analysis of variance (ANOVA) using Dunnett's post hoc correction to compare with sensitized PBS treated control mice (GraphPad Prism 3). Data are shown as mean±standard deviation. P<0.05 was considered significant.
# [2] = system: tetradecanoylphorbol 13-acetate (TPA) induced ear edema; assay: TPA-induced ear edema model; format: in vivo, mice; conditions: for AUC reduction (%) TPA: 10 μg one single s.c. injection 20 minutes before TPA, compared to PBS control; for Peak reduction (%) TPA: 10 μg subcutaneously 20 minutes before induction of edema
# Procedure: A stock solution of TPA was prepared by dissolving TPA in DMSO, 1 mg/mL, and was stored frozen at −80° C. For study B-E, a working solution was prepared with 200 μL of the TPA stock solution added to 800 μL acetone. The working solution was used the same day as it was prepared.
# Each cage was identified by a cage card marked with study number, group number, ethical approval number, sex and animal ear numbers. The animals were individually marked on the tail with transverse lines corresponding to the animals' number, using a permanent-ink felt pen. An illustration of the protocols used for the different treatments is outlined in Table 4. The compounds were tested according to the same protocols with necessary modifications.
# Intraperitoneal (i.p.) injections were performed by giving 100 μL in the lower right quadrant of the abdomen. Subcutaneous injections were done with 100 μL in the neck region. Intranasal administration was performed by letting the mouse inhale droplets into the nostrils, total volume 40 μL. All administrations were done on non-anesthetized mice.
# (§1) Both outer ears of a non-anesthetized mouse were washed with mild soap (Palmolive, Sweden) using a soft tooth brush, the ears were dried with tissue and cleaned with tissue soaked with acetone. After allowing the acetone to evaporate, TPA or AA was applied on both sides, 10 μL, on each side of the ear with care to cover the whole ear. The mouse was held for 20 seconds to allow the solvent to evaporate.
# Intraperitoneal injections were given in the lower right quadrant of the abdomen with the animal held in a supine position. Subcutaneous (s.c.) injections were given in the neck of the animals. Intranasal administrations were given to mice held in a slightly reclining position. With an adjustable micro-pipette 40 μL of the test substance was given in droplets on the nostrils and the mouse was allowed to aspirate at free will.
# (§2) The ears of non-anesthetized mice were measured at different time points for up to 96 hours after the TPA was administered, or up to 24 hours for the AA model. The first measurements were done before the edema was induced. The thickness was recorded with a spring loaded dial micrometer (Limit, Thickness Gauge, accuracy 0.01 mm, contact area Ø6 mm, Luna AB, Allingsås, Sweden) in triplicates at all time points per ear.
# (§3) The average thickness for both ears on a mouse was calculated and compared to the average thickness of the ears at the starting time point. The value obtained at the start of the experiment was set as 100%. The peak values and area under the curve (AUC) values for the treatment groups were calculated and compared to the inflamed control group, treated with PBS (set as 100%), and expressed as a percentage change (Δ% AUC).
# (§4) Area under the curve (AUC) with base line set as 100 was calculated using GraphPad Prism version 4.03 for Windows (GraphPad Software, San Diego Calif. USA, www.graphpad.com).
# AUC reduction and P-values were calculated against the positive control (TPA or AA+PBS).
# [3] = system: arachidonic acid (AA) induced ear edema; assay: Arachidonic acid (AA) induced ear edema model; format: in vivo, mice
# Procedure: A stock solution of AA was prepared by diluting AA in acetone, 4 mg/10 μL, and was stored frozen at −80° C. A final working solution, 1 mg/10 μL, in acetone was prepared. The working solution was used within one hour after preparation.
# as §1, §2, §3, §4
# In addition to the experiments done with the control compounds and IDX0001, all other test compounds were investigated in a similar fashion in the TPA and/or AA ear edema models, where the test compounds were given subcutaneously (10 μg) 20 minutes before induction of edema. The results were expressed as reduction of peak value and reduction of area under curve (AUC) in Table 5.
substance,measurement,setting,value
"G*G*G*TCGTCTG*C*G*G (GGGTCGTCTGCGG; DNA, linkages s3 o6 s3 (s phosphorothioate, o phosphodiester), methylation of C not given here) [IDX9053]",cell migration into BAL fluid,[1],no significant reduction of cell migration
same,AUC reduction (%) TPA,[2],−39.0%
same,Peak reduction (%) TPA,[2],−30.5%
"T*C*G*TCGTTCGGCCGATCG*T*C*C (TCGTCGTTCGGCCGATCGTCC; DNA, linkages s3 o14 s3 (s phosphorothioate, o phosphodiester), methylation of C not given here) [IDX9038, oligonucleotide; * = phosphorothioate modification]",migration of eosinophils into the BAL fluid,[1]; P<0.001,significantly reduce
same,migration of leukocytes into the BAL fluid,[1]; P<0.05,significantly reduce
same,AUC reduction (%) TPA,[2],−47.4%
same,Peak reduction (%) TPA,[2],−37.9%
"T*G*C*CATTCGTCGATTTCGTC*G*A*T (TGCCATTCGTCGATTTCGTCGAT; DNA, linkages s3 o16 s3 (s phosphorothioate, o phosphodiester), methylation of C not given here) [IDX9025, oligonucleotide; * = phosphorothioate modification]",cell migration into BAL fluid,[1],no significant reduction of cell migration
same,AUC reduction (%) AA,"[3]; 10 μg one single s.c. injection 20 minutes before AA, compared to PBS control",−81.9%
same,Peak reduction (%) AA,[3]; 10 μg subcutaneously 20 minutes before induction of edema,−14.9%
same,AUC reduction (%) TPA,[2],−57.8%
same,Peak reduction (%) TPA,[2],−23.5%
